The subject of data set [1] is α-tubulin acetylation in A2780 ovarian cancer cells. Briefly: Immunoblotting of acetylated α-tubulin in A2780 cells. Format: cell-based. As for the experimental part:
(§1) Lysates were sonicated 2 to 3 times for 30 sec in medium (Diagenode, Bioruptor 300).
(§2) For western blot analysis, equal amounts of protein were loaded and size separated on Bolt™ 4 to 12% Bis-Tris Plus Gels. Proteins were subsequently transferred onto polyvinylidene difluoride (PVDF) membrane using an iBlot® 2 Dry Blotting System (Invitrogen). Immunoblotting was carried out according to standard protocols with antibodies against histone H3 acetyl-lysine 56 (abcam), histone-H4, pantropic (Millipore), acetyl-α-tubulin (Sigma); and β-Actin (Sigma). Antigen-antibody complexes were detected using secondary antibodies conjugated with horseradish […] (HRP) and visualized using enhanced chemiluminescence (GE Healthcare; Piscataway, NJ).
A general note: Immunoblotting shows a protein as a band on a membrane.

In data set [2] the test system is histone H3 acetylation in A2780 ovarian cancer cells. Briefly: Immunoblotting of acetylated histone H3 (H3K56) in A2780 cells. Format: cell-based. The note with it: 24 hour treatment. The procedure:
as §1, §2

The test system of another data set is MiaPaCa-2 xenografts. Briefly: MiaPaCa-2 pancreatic cancer xenograft. Type of data set: in vivo, mice. The note with it: MiaPaCa-2 xenograft, HDAC6 inhibitor 50 mg/kg IP plus paclitaxel 10 mg/kg.
The subject of data set [3] is A2780, TOV-21G and MDA-MB-231 cells. In words: MTS cell viability assay. Format: cell-based. The conditions noted are these: 72 h, range over A2780, TOV-21G and MDA-MB-231 cells, 3 days, read-out: single agent viability IC50. The procedure: CellTiter 96® AQueous One Solution; Promega; Madison, WI, USA) dye absorbance. Cells (A2780, TOV-21G, MDA-MB-231) from 72 hour cultures were pulsed with 5 μL of CellTiter 96® AQueous One Solution in each well. The 384-well plates were incubated at 37°C for 5 hours, and absorbance was read in triplicate at a wavelength of 490 nm (with background correction using readings at 650 nm) on a spectrophotometer (Molecular Devices Corp.; Sunnyvale, CA, USA). […] The IC50 for each agent in each cell line is indicated in the legend of each graph. Real-time kinetic trace graphs of (C) cell proliferation and (D) induction of apoptosis were generated in the MDA- MB-231 breast cancer cell line. […] The mean and SEM of three replicate samples are shown. […]

Data set [4] has as its system MDA-MB-231 breast cancer cells. Briefly: IncuCyte live-cell proliferation assay. Type of data set: cell-based. The conditions noted are these: for proliferation (absolute cell number): MDA-MB-231, single agent.
In data set [5] the test system is MDA-MB-231 breast cancer cells. Briefly: IncuCyte Caspase 3/7 apoptosis assay. Format: cell-based. The note with it: for apoptosis (Caspase 3/7): MDA-MB-231, single agent.
Data set [6] concerns A2780, TOV-21G and MiaPaCa-2 cells. In words: EdU / FxCycle flow cytometry cell cycle assessment in multiple cell lines (Figure 4B, 4C). Format: cell-based. (In flow cytometry, cells or beads pass a laser one at a time.)
Data set [7] concerns phospho-histone H3 (pH3) positive cells. Briefly: Phospho-histone H3 / DNA content flow cytometry for M phase cells. Format: cell-based. The conditions noted are these: for pH3 positive cells (M phase): low dose 6 nM. As for the experimental part: arrest. (A) Dual parameter phospho-histone H3 (y axis, M phase cells) and FxCycle Far Red (x axis, DNA content) staining indicate the […]
High dose treatment of paclitaxel (100 nM) served as a positive control for M phase arrest. (B) Phase contrast micrographs were taken at the indicated time points after treatment of the samples in panel (A).
(§3) (1 picture or pasted object on this page, not shown here)

Data set [8] concerns α-tubulin acetylation in A2780 and MDA-MB-231 cells. In words: Immunoblotting of acetylated α-tubulin after combination treatment. The note with it: 48 hours. Format: cell-based. As for the experimental part:
A2780 and MDA-MB-231 cells were treated for 48 hours with the indicated concentrations of each drug and whole cell protein lysates were subjected to immunoblotting using antibodies for acetylated-α-tubulin and β-actin.
as §1, §2
For WES analysis, lysates were separated by an automated capillary-based electrophoresis system (WES, ProteinSimple, San Jose, CA). All procedures were performed according to the manufacturer's recommendations using the supplied reagents. […] The resulting data were analyzed using Compass software (ProteinSimple).

The subject of data set [9] is TOV-21G ovarian cancer cells. In words: Multipolar mitotic spindle scoring by α-tubulin staining. Type of data set: cell-based. The conditions noted are these: 24 hours; for frequency of multipolar spindle formation, combination with paclitaxel: HDAC6 inhibitor 2 μM plus paclitaxel 2 nM; for frequency of multipolar mitotic spindle formation, single agent: paclitaxel 2 nM, ACY-241 2 μM, ACY-1215 2 μM, control 3.1%. As for the experimental part:
(§4) Cells grown on glass coverslips were fixed in 4% paraformaldehyde for 15 min, followed by permeabilization with 0.5% Triton X-100 in PBS for 5 min. The cells were then incubated with α-tubulin (DM1A) mouse monoclonal antibody (Cell Signaling Technology, Danvers, MA), γ-tubulin (GTU-88) mouse monoclonal antibody (Sigma-Aldrich, St. Louis, MO) or NuMA (GT3611) mouse monoclonal antibody (Thermo Scientific, Rockford, IL) followed by Alexa Fluor 488 or 546 conjugated secondary antibodies (Invitrogen, Carlsbad, CA). Images were obtained with a Zeiss AX10 microscope (Carl Zeiss Micro-Imaging, Inc., Jena, Germany) equipped with a 20 X, 40X, or 63 X objective and standard filter set.
for α-tubulin (red) and DNA (blue) identified mitotic cells with multipolar spindles. (B) The frequency of multipolar spindle formation in
M phase cells was scored in at least 50 cells per treatment condition.
as §3

The test system of data set [10] is TOV-21G cells. In words: Multipolar mitotic spindle scoring by NuMA and α-tubulin co-staining. Type of data set: cell-based. The note with it: 24 hours.
Text: (§5) (B) The frequency of mitotic cells with multipolar spindles was scored in at least 50 cells from each treatment condition. Shown is the mean ± SD of three independent experiments. […] Microtubules and DNA were visualized by staining with anti-α-tubulin antibody (green) and DAPI (blue), respectively. The frequency of interphase cells with visually abnormal nuclei, including satellite nuclei and multinucleation, was scored in at least 100 cells per treatment condition. Shown is the mean ± SD of three independent experiments.
as §4
(A) Immunostaining for α-tubulin (green), NuMA
(red), and DNA (blue). (B) The frequency of mitotic cells with multipolar spindles was scored in at least 100 cells from each treatment
as §3

In data set [11] the test system is TOV-21G cells. Briefly: Live cell time-lapse imaging of cell division. Format: cell-based. The note with it: ACY-241 2 μM plus paclitaxel 5 nM, up to 48 hours. As for the experimental part:
Time-lapse imaging was obtained on a Zeiss AX10 live-cell microscope coupled with a CO2 and temperature-maintenance system, and a time-lapse recording system supporting multi-location time series acquisition (SlideBook6 x64, Intelligent Imaging Innovations, Inc., Ringsby, CT). After staining with 10 nM Hoechst33342, TOV-21G cells were incubated in 10% CO2 at 37°C and time-lapse images were acquired at 2 min intervals up to 48 hours with a CoolSNAP HQ2 CCD camera (Photometrics, Tucson, AZ). […]
monitored by live cell time-lapse microscopy. (A) The number of observed mitotic cells, unresolved mitoses, and frequency of bipolar and multipolar division from resolved mitosis were assessed. (B) Fluorescent and matched phase-contrast time-lapse images of representative mitoses in TOV-21G cells treated with the drug combination. Numbers show elapsed time after drug treatment (hour:minute:second), the color of circles differentiates individual cells being monitored, and dashed circles indicate observation of cell death. Panels labeled with lower case letters (a-e) identify timepoints with matched phase contrast images below (a’-e’).
as §3

Data set [12] has as its system TOV-21G cells. Briefly: Scoring of interphase cells with abnormal nuclei. Format: cell-based. The note with it: 48 hours.
Text: as §5, §4

Data set [13] in a line: Tolerability and body weight in xenograft-bearing mice. The conditions noted are these: for body weight change: MiaPaCa-2 model, combination treatment with paclitaxel; for tolerability in mice: dosed as a single agent and in combination with paclitaxel.
In a further data set the test system is TOV-21G xenografts. In words: TOV-21G ovarian cancer xenograft. Type of data set: in vivo, mice. The conditions noted are these: TOV-21G xenograft, HDAC6 inhibitor 50 mg/kg IP plus paclitaxel 10 mg/kg.
The next data set deals with A2780 xenografts. In words: A2780 ovarian cancer xenograft. Format: in vivo, mice. The conditions noted are these: HDAC6 inhibitor 50 mg/kg IP plus paclitaxel 10 mg/kg.
Setting [14] is: MDA-MB-231, relative to either single agent.

Each structure is given as a SMILES string.

What is called IC50 is the concentration at which inhibition is half-maximal. With `O=C(CCCCCCNC(=O)c1cnc(N(c2ccccc2)c2ccccc2Cl)nc1)NO` [ACY-241], in [1] (24 hour treatment, 300 nM), the “hyperacetylation of α-tubulin” value is “increased hyperacetylation of α-tubulin”. The “α-tubulin hyperacetylation, dose dependence” value in data set [1] (range of concentrations, 24 hours) is listed as “dose-dependent increase in α-tubulin hyperacetylation”. Besides, the “doses at which hyperacetylation of histone H3 was observed” value in data set [2] is recorded as “above 1 μM”. Moreover, the “suppression of tumor growth, combination with paclitaxel” value (“suppression of tumor growth” for short) with MiaPaCa-2 xenografts was “similarly significant efficacy”. Moreover, the IC50 in data set [3] was 4600 to 6100 nM. In addition, the “proliferation, combination with paclitaxel” value in [4] (setting [14]) is “significantly reduced proliferation”. The “proliferation (absolute cell number)” value was “completely suppressed proliferation” in data set [4] (10 μM) and “modestly reduced proliferation” in data set [4] (doses up to 3 μM, 96 hours). In addition, in data set [5] (setting [14]), the “apoptosis, combination with paclitaxel” value is on record as “enhanced apoptosis”. Besides, the “apoptosis (Caspase 3/7)” value in data set [5] (10 μM) is recorded as “significant induction of apoptosis”; in [5] (doses up to 3 μM, 96 hours) it was “without inducing apoptosis”. Moreover, the “percentage of cells in S phase, combination with paclitaxel” value in data set [6] (A2780 and TOV-21G (3 days), MiaPaCa-2 (5 days)) is “significantly reduced the percentage of cells in S phase”. Besides, the “induction of cell death (SubG1), combination with paclitaxel” value in [6] (relative to control or single agent treatment) was “significantly increased induction of cell death”. In data set [7] (2 μM, single agent or in combination with paclitaxel), the M phase arrest entry is reported as “did not significantly increase M phase arrest”. Also, the “α-tubulin hyperacetylation, combination with paclitaxel” value in [8] was “synergistic increase in α-tubulin hyperacetylation”. Moreover, the “frequency of multipolar spindle formation, combination with paclitaxel” value in data set [9] was 38.6%; in the data set with TOV-21G cells [10] (NuMA/α-tubulin co-staining, p = 0.0047 vs paclitaxel), 51.5%. In data set [9], the “frequency of multipolar mitotic spindle formation, single agent” value came out at 10.7%. Moreover, in the data set on TOV-21G cells [10] (epothilone 0.5 nM plus ACY-241), the “frequency of multipolar spindle formation, combination with epothilone” value is 51.3%. Besides, the “frequency of multipolar cell division, combination with paclitaxel” value in the data set on TOV-21G cells [11] is on record as “increased the frequency of multipolar cell division compared to each single agent”. Moreover, in the data set on TOV-21G cells [12], the “frequency of cells with visually abnormal nuclei, combination with paclitaxel” value is “significantly increased the frequency of cells with visually abnormal nuclei”. The body weight change entry in [13] is listed as “did not result in body weight loss”. Besides, the tolerability in mice result in data set [13] is on record as “well tolerated”.

For the compound `C/C(=C\c1csc(C)n1)[C@@H]1C[C@@H]2O[C@]2(C)CCC[C@H](C)[C@H](O)[C@@H](C)C(=O)C(C)(C)[C@@H](O)CC(=O)O1` [epothilone, epothilone B, reference compound], the “frequency of multipolar mitotic spindle formation, single agent” value with TOV-21G cells [10] (0.5 nM, control 0.9%) is recorded as 29.9%.

Consider `CC(=O)O[C@H]1C(=O)[C@@]2(C)[C@H]([C@H](OC(=O)c3ccccc3)[C@]3(O)C[C@H](OC(=O)[C@H](O)[C@@H](NC(=O)c4ccccc4)c4ccccc4)C(C)=C1C3(C)C)[C@]1(OC(C)=O)CO[C@@H]1C[C@@H]2O` [paclitaxel, reference compound], for which the IC50 in data set [3] is 2.3 to 3.2 nM. Moreover, in [4] (up to 2 nM), the “proliferation (absolute cell number)” value is “modestly reduced cell proliferation”. Moreover, in data set [5] (up to 2 nM), the “apoptosis (Caspase 3/7)” value is “did induce apoptosis after longer duration of exposure”. The “cell cycle arrest at M phase” value in [7] (high concentration 100 nM, 8 to 24 hours) was “induced cell cycle arrest at mitosis (M) phase”. Further, the “pH3 positive cells (M phase)” value in [7] (8 hours, DMSO […]) is reported as 14%; in data set [7] (24 hours) it was 4.1%. Besides, the “frequency of multipolar mitotic spindle formation, single agent” value in data set [9] is given as 15.2%. Further, in the data set on TOV-21G cells [10] (NuMA/α-tubulin co-staining (Figure 6B)), the “frequency of multipolar spindle formation, single agent” value turned out to be 30.4%.

With `O=C(CCCCCCNC(=O)c1cnc(N(c2ccccc2)c2ccccc2)nc1)NO` [ricolinostat], the “suppression of tumor growth” value in the data set on TOV-21G xenografts was “significantly greater suppression of tumor growth relative to either single agent”. For the same compound, the “suppression of tumor growth” value in the data set on A2780 xenografts was “significantly greater suppression of tumor growth relative to either single agent”. Also, in the data set on MiaPaCa-2 xenografts, the “suppression of tumor growth” value was “significantly greater suppression of tumor growth relative to either single agent”. For the same compound, in data set [9], the “frequency of multipolar spindle formation, combination with paclitaxel” value came to 41.3% and the “frequency of multipolar mitotic spindle formation, single agent” value was 12.6%. Further, in [13], the body weight change result is “did not result in body weight loss” and the tolerability in mice result is on record as “well tolerated”.

The record behind these values is publication PMC5356834 (Oncotarget, 2016).
